Consider 23 compounds from patent publication US8906904B2, “Alkoxy pyrazoles as soluble guanylate cyclase activators” (Boehringer Ingelheim International GmbH, priority 2012, dated 2014).

The target in series [1] is T1, human soluble guanylate cyclase alpha 1 and beta 1 subunits (sGC) (Homo sapiens, UniProt Q02108+Q02153).
T1 construct: expressed in transfected cells; host or cells: Chinese hamster ovary (CHO) cells, stably transfected
T1 sequence (Q02108 1-690): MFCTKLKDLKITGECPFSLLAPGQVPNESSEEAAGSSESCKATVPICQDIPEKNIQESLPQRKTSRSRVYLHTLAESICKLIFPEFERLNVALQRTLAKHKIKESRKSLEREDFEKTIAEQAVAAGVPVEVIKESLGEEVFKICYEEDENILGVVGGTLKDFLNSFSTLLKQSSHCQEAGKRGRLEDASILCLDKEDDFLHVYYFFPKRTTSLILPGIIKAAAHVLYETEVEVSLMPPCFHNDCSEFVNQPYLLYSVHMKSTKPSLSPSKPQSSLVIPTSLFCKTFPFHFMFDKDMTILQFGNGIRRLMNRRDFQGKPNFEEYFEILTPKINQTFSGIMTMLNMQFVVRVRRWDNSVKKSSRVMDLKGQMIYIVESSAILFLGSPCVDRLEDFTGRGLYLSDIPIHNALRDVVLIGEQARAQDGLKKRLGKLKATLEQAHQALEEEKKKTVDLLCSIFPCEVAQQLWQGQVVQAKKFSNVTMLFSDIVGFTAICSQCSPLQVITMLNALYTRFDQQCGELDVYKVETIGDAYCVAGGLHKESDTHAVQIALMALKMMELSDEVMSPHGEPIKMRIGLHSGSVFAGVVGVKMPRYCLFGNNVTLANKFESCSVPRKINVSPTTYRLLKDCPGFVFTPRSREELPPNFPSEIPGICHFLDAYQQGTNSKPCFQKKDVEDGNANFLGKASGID
T1 sequence (Q02153 1-619): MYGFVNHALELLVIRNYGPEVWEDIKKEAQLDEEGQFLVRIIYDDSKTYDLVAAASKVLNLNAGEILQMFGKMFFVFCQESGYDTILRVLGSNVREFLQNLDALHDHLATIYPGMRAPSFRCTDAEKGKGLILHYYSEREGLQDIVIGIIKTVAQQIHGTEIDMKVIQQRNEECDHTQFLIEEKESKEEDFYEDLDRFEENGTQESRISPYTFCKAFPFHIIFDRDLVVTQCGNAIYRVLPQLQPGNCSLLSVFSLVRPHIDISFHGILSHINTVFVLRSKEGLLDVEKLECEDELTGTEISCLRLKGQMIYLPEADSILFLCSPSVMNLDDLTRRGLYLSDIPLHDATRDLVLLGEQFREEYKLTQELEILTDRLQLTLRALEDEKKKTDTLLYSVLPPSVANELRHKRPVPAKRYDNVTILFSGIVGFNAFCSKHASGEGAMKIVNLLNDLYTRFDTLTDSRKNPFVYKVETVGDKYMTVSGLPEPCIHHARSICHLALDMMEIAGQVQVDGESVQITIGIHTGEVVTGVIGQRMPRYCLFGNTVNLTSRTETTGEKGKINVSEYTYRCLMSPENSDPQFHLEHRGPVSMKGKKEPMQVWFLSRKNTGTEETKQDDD
The series can be described thus: sGC cellular activator assay (cGMP, HTRF). The following applies: CHO cells stably expressing human sGC alpha 1/beta 1, preincubated with 40 microM ODQ; cGMP readout; assay run with and without 50% human serum, Table 2 does not say which. The series is classed as cell-based. On the procedure: The sGC cellular activator assay is performed in the presence and absence of 50% human serum (HS) using Chinese hamster ovary cells that have been stably transfected to express the human soluble guanylate cyclase alpha 1 and beta 1 subunits (sGC). Cells are preincubated with 40 microM 1H-[1,2,4]oxadiazolo[4,3-a]quinoxalin-1-one (ODQ), an sGC inhibitor, for one h in buffer containing 0.1% bovine serum albumin and 3-isobutyl-1-methylxanthine (IBMX). Concentration response curves are prepared for test compounds in DMSO. An intermediate dilution of the compounds is performed in either buffer containing IBMX or type AB HS containing IBMX. Diluted compounds are added to cells and they are incubated at room temperature for thirty min. cGMP is measured using a CisBio homogeneous time resolved fluorescence kit and the EC50 is calculated for each compound.
Representative compounds of the present invention were tested for activity the above assay. Preferred compounds have an EC50 of <1,000 nM in the above assay and more preferred compounds have an EC50<200 nM.

The nature of series [2]: human liver microsome (HLM) metabolic stability assay. Particulars: human liver microsomes; % hepatic blood flow calculated from t1/2. The series is classed as in vitro ADME. On the procedure:
The 5 time point, high-throughput human liver microsome (HLM) metabolic stability assay is designed to determine in vitro compound metabolism. Compounds are incubated with HLMs at a concentration of 1 uM, at 37° C., for a total of 60 min. The percent of compound remaining at 5, 15, 30, and 60 min is used to calculate the t½ (min), CLint (mL/min/kg), CLh (mL/min/kg), and % Qh. The assay is based on a 96-well format and can accommodate up to 92 compounds per plate (n=1).
Using the 96-well multi-channel head, the Biomek FX, equipped with a Peltier heating block/shaker, is programmed to accomplish the following steps: • 1. Pipette 175 uL of 1.15 mg/mL microsomes into each of the 96 conical inserts (Analytical Sales and Products, catalog number 96PL05) that fit into the plate of the Peltier heating block/shaker (the incubation plate) • 2. Add 5 uL of compounds from the assay plate to the microsomes and shake the mixture at 600 rpm at 42.1° C. for 10 min (a setting of 42.1° C. on the Peltier is required for the samples to incubate at 37° C.) • 3. After 10 min, prompt the user to add the NADPH plate to the deck and add 20 uL from the NADPH plate to the incubation plate to start the reaction • 4. Add 215 uL of 100%, cold acetonitrile containing an internal standard(s) to a 0 minute, 5 minute, 15 minute, 30 minute, and 60 minute “quench” plate • 5. At 0 min, 5 min, 15 min, 30 min, and 60 min into the incubation, aspirate 12 uL from the incubation mixture and add it to the quench solution to stop the reaction • 6. Add 185 uL HPLC grade water to each well of the 0, 5, 15, 30 and 60 minute quench plates to dilute compounds to the appropriate concentration for the mass spectrometer
After all time points are collected, the quench plates are sealed with 96-well pierceable plate mats or heat sealing foil and centrifuged at 3000 rpm for 15 min to pellet the microsomes.
The plates are analyzed using LC/MS/MS with electron spray ionization (ESI) and the previously determined MRM transitions. The LC method includes the following parameters:
Using an Excel template in Activitybase, the peak areas corresponding to 5, 15, 30 and 60 min are compared to the peak area at 0 min to calculate the percent of remaining compound using the following equation: Percent compound remaining=(AUC at Time t min/AUC at Time 0 min)×100 where t=0, 5, 15, 30 or 60 min.
Time (min) is plotted against the natural logarithm (Ln) of the percent compound remaining to determine the slope. The slope is used to calculate t½ (min) using the equation, t½=0.693/slope.
Preferred compounds have % Qh values of less than 24.

pEC50: −log10 of the molar value.

`COc1c(C(=O)O)cnn1-c1cccc(-c2cccc(Cl)c2OCc2ccc3c(c2)CCN(C2COC2)C3)n1` [Compound 7] had a pEC50 in series [1] of 7.49. The “HLM (% Qh)” value in series [2] is listed as <24 % Qh.

In the case of `COc1c(C(=O)O)cnn1-c1cccc(-c2cccc(C)c2OCc2ccc3c(c2)CCN(C2COC2)C3)n1` [Compound 8], the pEC50 in series [1] is 7.38. Further, the “HLM (% Qh)” value in series [2] was <24 % Qh.

As for `COc1c(C(=O)O)cnn1-c1cccc(-c2cccc(C(F)(F)F)c2OCc2ccc3c(c2)CCN(C2COC2)C3)n1` [Compound 9], the pEC50 in series [1] was 7.23. Besides, the “HLM (% Qh)” value in series [2] is <24 % Qh.

`COc1c(C(=O)O)cnn1-c1cccc(-c2cccc(C)c2OCc2ccc3c(c2)C(C)(C)CN(C2COC2)C3)n1` [Compound 10]: the pEC50 in series [1] is 7.80. Besides, the “HLM (% Qh)” value in series [2] is listed as 30 % Qh.

Turning to `COc1c(C(=O)O)cnn1-c1cccc(-c2cccc(C)c2OCc2ccc3c(c2)CCN(CC(F)(F)F)C3)n1` [Compound 11, 5-methoxy-1-(6-{3-methyl-2-[2-(2,2,2-trifluoro-ethyl)-1,2,3,4-tetrahydro-isoquinolin-6-ylmethoxy]-phenyl}-pyridin-2-yl)-1H-pyrazole-4-carboxylic acid], the negative-log EC50 (pEC50) in series [1] is 7.77. Further, the “HLM (% Qh)” value in series [2] is 47 % Qh.

As for `COc1c(C(=O)O)cnn1-c1cccc(-c2cccc(C)c2OCc2ccc3c(c2)CCN(CC2(C)COC2)C3)n1` [Compound 12], the pEC50 in series [1] was 7.59. Moreover, the “HLM (% Qh)” value in series [2] is given as <24 % Qh.

Consider `COc1c(C(=O)O)cnn1-c1cccc(-c2cccc(C)c2OCc2ccc3c(c2)CCN(C(C)C)C3)n1` [Compound 13], for which the pEC50 in series [1] is 6.74. Besides, the “HLM (% Qh)” value in series [2] is given as <24 % Qh.

Compound `COc1c(C(=O)O)cnn1-c1cccc(-c2cccc(C)c2OCc2ccc3c(c2)CCN(CC(C)(C)C)C3)n1` [Compound 14] had a pEC50 in series [1] of 7.74. For the same compound, the “HLM (% Qh)” value in series [2] is reported as 31 % Qh.

`CCOc1c(C(=O)O)cnn1-c1cccc(-c2cccc(C)c2OCc2ccc3c(c2)CCN(CC2CC(=O)N(C)C2)C3)n1` (stereo not shown) [Compound 97, 5-ethoxy-1-(6-{3-methyl-2-[2-(1-methyl-5-oxo-pyrrolidin-3-ylmethyl)-1,2,3,4-tetrahydro-isoquinolin-6-ylmethoxy]-phenyl}-pyridin-2-yl)-1H-pyrazole-4-carboxylic acid] had a pEC50 in series [1] of 7.17. Further, in series [2], the “HLM (% Qh)” value is <24 % Qh.

In the case of `COc1c(C(=O)O)cnn1-c1cccc(-c2ccc(C)cc2OCc2ccc3c(c2)CCN(C2CCOCC2)C3)n1` [Compound 98], the pEC50 in series [1] was 6.57. Also, the “HLM (% Qh)” value in series [2] is 31 % Qh.

On to `COc1c(C(=O)O)cnn1-c1cccc(-c2ccc(C)cc2OCc2ccc3c(c2C)CCN(C2CCOCC2)C3)n1` [Compound 99], for which the pEC50 in series [1] was 6.80. In addition, the “HLM (% Qh)” value in series [2] was <24 % Qh.

In the case of `COc1c(C(=O)O)cnn1-c1cccc(-c2cccc(C)c2OCc2ccc3c(c2)CCCN(C2CCOCC2)C3)n1` [Compound 100], the pEC50 in series [1] is 6.77. In addition, the “HLM (% Qh)” value in series [2] is 31 % Qh.

For `CCOc1c(C(=O)O)cnn1-c1cccc(-c2cccc(C)c2OCc2ccc3c(c2)CCN(CC2CCCO2)C3)n1` (stereo not shown) [Compound 101, 5-ethoxy-1-(6-{3-methyl-2-[2-(tetrahydro-furan-2-ylmethyl)-1,2,3,4-tetrahydro-isoquinolin-6-ylmethoxy]-phenyl}-pyridin-2-yl)-1H-pyrazole-4-carboxylic acid], in series [1], the pEC50 is 6.96. Further, in series [2], the “HLM (% Qh)” value is reported as <24 % Qh.

In series [1], `COc1c(C(=O)O)cnn1-c1cccc(-c2cccc(C)c2OCc2ccc3c(c2)CCN([C@H]2CC[C@]4(CCCO4)CC2)C3)n1` [Compound 102] had a pEC50 of 6.96. Besides, in series [2], the “HLM (% Qh)” value is given as <24 % Qh.

`COc1c(C(=O)O)cnn1-c1cccc(-c2cccc(C)c2OCc2ccc3c(c2)CCN([C@H]2CC[C@@]4(CCCO4)CC2)C3)n1` [Compound 103] gave a pEC50 in series [1] of 6.96. The “HLM (% Qh)” value in series [2] is reported as 25 % Qh.

`Cc1cccc(-c2cccc(-n3ncc(C(=O)O)c3OC(C)C)n2)c1OCc1ccc2c(c1C)CCN(C1CCOCC1)C2` [Compound 104]: in series [1], the pEC50 is 7.51. Also, in series [2], the “HLM (% Qh)” value is given as 26 % Qh.

For the compound `COc1c(C(=O)O)cnn1-c1cccc(-c2cccc(C)c2OCc2ccc3c(c2C)CCN([C@H]2CCOC2)C3)n1` [Compound 105], in series [1], the pEC50 is 7.77. Besides, the “HLM (% Qh)” value in series [2] was <24 % Qh.

Turning to `COc1c(C(=O)O)cnn1-c1cccc(-c2cccc(C)c2OCc2ccc3c(c2C)CCN([C@@H]2CCOC2)C3)n1` [Compound 106], in series [1], the pEC50 is 7.57. Besides, the “HLM (% Qh)” value in series [2] is recorded as <24 % Qh.

As to `CCOc1c(C(=O)O)cnn1-c1cccc(-c2cccc(C)c2OCc2ccc3c(c2)CCN([C@H]2CCOC2)C3)n1` [Compound 110], the pEC50 in series [1] is 7.35. For the same compound, in series [2], the “HLM (% Qh)” value is <24 % Qh.

Consider `Cc1cccc(-c2cccc(-n3ncc(C(=O)O)c3OC(C)C)n2)c1OCc1ccc2c(c1)CCN([C@H]1CCOC1)C2` [Compound 111], for which the pEC50 in series [1] is 7.00. Further, the “HLM (% Qh)” value in series [2] is recorded as <24 % Qh.

Regarding `CCOc1c(C(=O)O)cnn1-c1cccc(-c2cccc(C)c2OCc2ccc3c(c2)CCN([C@@H]2CCOC2)C3)n1` [Compound 112], the pEC50 in series [1] was 6.96. In addition, the “HLM (% Qh)” value in series [2] is <24 % Qh.

As to `Cc1cccc(-c2cccc(-n3ncc(C(=O)O)c3OC(C)C)n2)c1OCc1ccc2c(c1)CCN([C@@H]1CCCOC1)C2` [Compound 113], the pEC50 in series [1] was 7.62. Besides, the “HLM (% Qh)” value in series [2] is recorded as <24 % Qh.

For `CCOc1c(C(=O)O)cnn1-c1cccc(-c2cccc(C)c2OCc2ccc3c(c2C)CCN(C2CCOCC2)C3)n1` [Compound 114], the pEC50 in series [1] was 7.40. Further, in series [2], the “HLM (% Qh)” value is reported as <24 % Qh.
